# Results taken from US10828315B2 (Madrigal Pharmaceuticals, Inc., priority 2013, dated 2020).
# “And” between values parts separate entries of the source, which are not always exact repeats. Identical values can stand only once. Like-named read-outs stand apart in the source and are kept apart here.
# Assays:
# [1] = test system: HER2; assay: HER2 degradation in BT-474 cells (Example 3, Methods 1 and 2); assay type: cell-based, human
# Source text: This example illustrates how a HER2 degradation assay may be used as a test to determine and select Hsp90-targeting moieties suitable for use in SDC-TRAPs of the invention, and further illustrates the ability of SDC-TRAPs to target cells preferentially expressing Hsp90. Such a test may further be used to determine the Hsp90 binding ability of SDC-TRAPs of the invention, as well as through competitive binding assays and cell-based Hsp90 client protein degradation assays known in the art.
# After treatment, each cytoplasmic sample is prepared from 1×10^6 cells by incubation of cell lysis buffer (#9803, Cell Signaling Technology) on ice for 10 minutes. The resulting supernatant used as the cytosol fractions is dissolved with sample buffer for SDS-PAGE and run on a SDS-PAGE gel, blotted onto a nitrocellulose membrane by using semi-dry transfer. Non-specific binding to nitrocellulose is blocked with 5% skim milk in TBS with 0.5% Tween at room temperature for 1 hour, then probed with anti-HER2/ErB2 mAb (rabbit IgG, #2242, Cell Signaling) and anti-Tubulin (T9026, Sigma) as housekeeping control protein. HRP-conjugated goat anti-rabbit IgG (H+L) and HRP-conjugated horse anti-mouse IgG (H+L) are used as secondary Ab (#7074#7076, Cell Signaling) and LumiGLO reagent, 20× Peroxide (#7003, Cell Signaling) is used for visualization. The Hsp90 client protein HER2 is degraded when cells are treated with Hsp90-targeting moieties or SDC-TRAPs of the invention.
# BT-474 cells are plated in the interior 60 wells of a 96 well black clear bottom plate (20,000 cells/well) in DMEM medium, with DMEM media in the surrounding 36 wells, and incubated at 37° C. with 5% CO2 overnight. On the second day, concentration response curve source plates are produced (10 point, 3-fold dilution of compounds in DMSO) followed by a 1:30 dilution in an intermediate dilution plate containing DMEM. Compound is transferred from the intermediate plate to the cell plate at a dilution of 1:10. The cells are then incubated at 37° C. with 5% CO2 for 24 hours.
# Cells are then fixed in 4% phosphate-buffered paraformaldehyde for 30 minutes at room temperature and then permeabilized by washing five times with 0.1% Triton X-100 in PBS for 5 minutes at room temperature on a shaker. […] Cells are washed five times with 0.1% Tween-20 in PBS for 5 minutes at room temperature on a shaker and incubated with fluorescently-labeled secondary antibody (LI-COR, #926-32211) diluted 1:1000 in blocking buffer, and DRAQ5 nuclear stain (Biostatus Limited, # DRAQ5) diluted 1:10,000, at room temperature on a shaker for 1 hour. Cells are washed 5 times with 0.1% Tween-20 in PBS for 5 minutes at room temperature on a shaker and imaged on a LI-COR Odyssey imaging station. The raw data is normalized to DRAQ5 and the HER2 EC50 is calculated using XLfit™.
# [2] = Artificial membrane permeability assay (PAMPA); conditions: incubation 5 h, first table
# [3] = test system: human urinary bladder cancer cell line RT-112; assay: Cytotoxicity assay (CellTiter-Glo, 72 h), RT-112; assay type: cell-based; conditions: read-out: Cytotoxicity (IC50, nM) RT-112
# Procedure: (§1) Cytotoxicity of SDC-TRAP molecules was determined in three cancer cell lines. […] 80 μL of CellTiter-Glo was added to each well, followed by room temperature incubation in the dark for 15 minutes. Cell was determined by luminescence. IC50 was calculated using XLfit™ software.
# [4] = test system: human urinary bladder cancer cell line SW780; assay: Cytotoxicity assay (CellTiter-Glo, 72 h), SW780; assay type: cell-based; conditions: read-out: Cytotoxicity (IC50, nM) SW-780
# Procedure: as §1
# [5] = test system: human breast cancer cell line BT-474; assay: Cytotoxicity assay (CellTiter-Glo, 72 h), BT-474; assay type: cell-based; conditions: read-out: Cytotoxicity (IC50, nM) BT-474
# Procedure: as §1
# [6] = test system: HER2; assay: HER2 degradation assay with BT-474 cell line (Example 12, FACS); assay type: cell-based, human
# [7] = mouse, plasma, 1 h
# [8] = Mouse plasma stability protocol, up to 1 h (Examples 16-18)
# [9] = Tissue Distribution Data for SDC-TRAP-0098, Time (h) 0.083
# [10] = Tissue Distribution Data for SDC-TRAP-0098, Time (h) 1
# [11] = Tissue Distribution Data for SDC-TRAP-0098, Time (h) 6
# [12] = Tissue Distribution Data for SDC-TRAP-0098, Time (h) 24
# [13] = % Remaining of parent after 1 h incubation in mouse plasma at 37° C. (10 μM)
compound,measurement,setting,value
"C=CCNC1=C2C[C@@H](C)C[C@H](OC)[C@H](O)[C@@H](C)/C=C(\C)[C@H](OC(N)=O)[C@@H](OC)/C=C\C=C(/C)C(=O)NC(=CC1=O)C2=O [17-AAG, reference compound]",degradation of HER2 (western blot),"[1]; 0.5 μM, overnight",partial degradation of HER2
"Nc1cccc2c1CN(C1CCC(=O)NC1=O)C2=O (stereo not shown) [Lenalidomide, lenalidomide, reference compound]",Mass Retention,[2],26.0%
same,Tumor Conc.,"female, SCID, mouse, in vivo, 24 h",0.0574 nmol/g of tissue
same,Tumor Conc.,"female, SCID, mouse, in vivo, 48 h",0.0143 nmol/g of tissue
same,Plasma Conc.,"mouse, in vivo",BQL
same,Tumor Conc.,"mouse, in vivo",BQL
same,IC50,"[3]; RT-112, 72 hours",> 10000 nM
same,IC50,"[4]; SW780, 72 hours",> 10000 nM
same,IC50,"[5]; BT-474, 72 hours",> 10000 nM
"CCc1c2c(nc3ccc(OC(=O)N4CCC(Cc5ccc(-n6c(O)nnc6-c6cc(C(C)C)c(O)cc6O)cc5)CC4)cc13)-c1cc3c(c(=O)n1C2)COC(=O)C3(O)CC (stereo not shown) [SDC-TRAP-0031, 4,11-diethyl-4-hydroxy-3,14-dioxo-3,4,12,14-tetrahydro-1H-pyrano[3′,4′:6,7]indolizino[1,2-b]quinolin-9-yl 4-(4-(3-(2,4-dihydroxy-5-isopropylphenyl)-5-hydroxy-4H-1,2,4-triazol-4-yl)benzyl)piperidine-1-carboxylate]",IC50,[1],2920 nM
same,IC50,[6],1270 nM
"CC(C)c1cc(-c2nnc(O)n2-c2ccc(CN3CCN(C(=O)c4ccc(CCc5c[nH]c6nc(N)[nH]c(=O)c56)cc4)CC3)cc2)c(O)cc1O [SDC-TRAP-0068, 2-amino-5-(4-(4-(4-(3-(2,4-dihydroxy-5-isopropylphenyl)-5-hydroxy-4H-1,2,4-triazol-4-yl)benzyl)piperazine-1-carbonyl)phenethyl)-3H-pyrrolo[2,3-d]pyrimidin-4(7H)-one]",IC50,"[3]; RT-112, 72 hours",74 nM
same,% Remaining (1 h),[7]; 10 µM,96.5%
same,% Remaining (1 h),[7]; 10 μM,96.5%
same,IC50,"[4]; SW780, 72 hours",202 nM
same,IC50,"[5]; BT-474, 72 hours",70 nM
"COc1ccc(-c2cnoc2-c2cc(OC)c(OC)c(OC)c2)cc1OC(=O)N1CCN(Cc2ccc(-n3c(O)nnc3-c3cc(C(C)C)c(O)cc3O)cc2)CC1 [SDC-TRAP-0098, 2-Methoxy-5-(5-(3,4,5-trimethoxyphenyl)isoxazol-4-yl)phenyl-4-(4-(3-(2,4-dihydroxy-5-isopropylphenyl)-5-hydroxy-4H-1,2,4-triazol-4-yl)benzyl) piperazine-1-carboxylate]",Tumor Conc.,[9],5.02 nmol/g of tissue
same,Tumor/Plasma Ratio,[9],0.01
same,Tumor Conc.,[10],4.62 nmol/g of tissue
same,Tumor/Plasma Ratio,[10],0.62
same,Tumor Conc.,[11],3.18 nmol/g of tissue
same,Tumor/Plasma Ratio,[11],8.22
same,Tumor Conc.,[12],0.920 nmol/g of tissue
same,Tumor/Plasma Ratio,[12],300
same,Tumor Conc.,"Tissue Distribution Data for SDC-TRAP-0098, Time (h) 48",0.182 nmol/g of tissue
same,IC50,"[3]; RT-112, 72 h",22 nM
same,% Remaining (1 h),[8]; [13],96.0%
same,% Remaining (1 h),"[8]; mouse plasma, 1 h",96.0%
same,IC50,"[4]; SW780, 72 h",257 nM
same,IC50,"[5]; BT-474, 72 h",41 nM
same,IC50,[6],232 nM
"CC(C)c1cc(-c2nnc(O)n2-c2ccc(CN3CCN(C(=O)ONC(=O)CCCCCCC(=O)Nc4ccccc4)CC3)cc2)c(O)cc1O [SDC-TRAP-0117, N1-((4-(4-(3-(2,4-dihydroxy-5-isopropylphenyl)-5-hydroxy-4H-1,2,4-triazol-4-yl)benzyl)piperazine-1-carbonyl)oxy)-N8-phenyloctanediamide]",IC50,"[3]; RT-112, 72 hours",152 nM
same,% Remaining (1 h),[7]; 10 µM,3.97%
same,IC50,"[4]; SW780, 72 hours",284 nM
same,IC50,"[5]; BT-474, 72 hours",452 nM
"CCNC(=O)c1nnc(-c2cc(C(C)C)c(O)cc2O)n1-c1ccc(C(=O)N2CCN(c3cc(C)c(OC(=O)Nc4cccc5c4CN(C4CCC(=O)NC4=O)C5=O)c(C)c3)CC2)cc1 (stereo not shown) [SDC-TRAP-0178, 4-(4-(4-(3-(2,4-dihydroxy-5-isopropylphenyl)-5-(ethylcarbamoyl)-4H-1,2,4-triazol-4-yl)benzoyl)piperazin-1-yl)-2,6-dimethylphenyl (2-(2,6-dioxopiperidin-3-yl)-1-oxoisoindolin-4-yl)carbamate]",Plasma Conc.,"after SDC-TRAP-0178, 1 h",217000 nM
same,Tumor Conc.,"after SDC-TRAP-0178, 1 h",12.8 nmol/g of tissue
same,Tumor/Plasma Ratio,"after SDC-TRAP-0178, 1 h",0.0589
same,Plasma Conc.,"after SDC-TRAP-0178, 6 h",4510 nM
same,Tumor Conc.,"after SDC-TRAP-0178, 6 h",7.17 nmol/g of tissue
same,Tumor/Plasma Ratio,"after SDC-TRAP-0178, 6 h",1.59
same,Plasma Conc.,"after SDC-TRAP-0178, 24 h",28 nM
same,Tumor Conc.,"after SDC-TRAP-0178, 24 h",2.81 nmol/g of tissue
same,Tumor/Plasma Ratio,"after SDC-TRAP-0178, 24 h",100
same,Plasma Conc.,"after SDC-TRAP-0178, 48 h",241 nM
same,Tumor Conc.,"after SDC-TRAP-0178, 48 h",1.01 nmol/g of tissue
same,Tumor/Plasma Ratio,"after SDC-TRAP-0178, […]",0.0179
same,IC50,"[3]; RT-112, 72 h",29 nM
same,% Remaining (1 h),[8]; [13],82.0%
same,% Remaining (1 h),"[8]; mouse plasma, 37° C., 10 μM",82.0%
same,IC50,"[4]; SW780, 72 h",> 10000 nM
same,IC50,"[5]; BT-474, 72 h",37 nM
same,IC50,[6],170 nM and 91 nM
same,IC50,"[6]; BT-474 cells, overnight",91 nM
"CCNC(=O)c1nnc(-c2cc(C(C)C)c(O)cc2O)n1-c1ccc2c(c1)CN(Cc1cc(OC)c(OC(=O)Nc3cccc4c3CN(C3CCC(=O)NC3=O)C4=O)c(OC)c1)C2 (stereo not shown) [SDC-TRAP-0196, 4-((5-(3-(2,4-dihydroxy-5-isopropylphenyl)-5-(ethylcarbamoyl)-4H-1,2,4-triazol-4-yl)isoindolin-2-yl)methyl)-2,6-dimethoxyphenyl (2-(2,6-dioxopiperidin-3-yl)-1-oxoisoindolin-4-yl)carbamate]",Mass Retention,[2],22.3%
same,IC50,"[3]; RT-112, 72 h",31 nM
same,% Remaining (1 h),[8]; [13],66.2%
same,IC50,"[4]; SW780, 72 h",> 10000 nM
same,IC50,"[5]; BT-474, 72 h",17 nM
same,IC50,[6],89 nM
"CC(C)c1cc(C(=O)N2Cc3ccc(NC(=O)CCCc4nc5cc(N(CCCl)CCCl)ccc5n4C)cc3C2)c(O)cc1O [SDC-TRAP-0211, 4-(5-(bis(2-chloroethyl)amino)-1-methyl-1H-benzo[d]imidazol-2-yl)-N-(2-(2,4-dihydroxy-5-isopropylbenzoyl)isoindolin-5-yl)butanamide]",IC50,"[3]; RT-112, 72 h",110 nM
same,IC50,"[4]; SW780, 72 h",2340 nM
same,IC50,"[5]; BT-474, 72 h",249 nM
same,IC50,"[6]; BT-474 cells, overnight",289 nM
